According to the supplement of paper PMC10307832:

How the values were obtained:
Assay in all cases: relative viability (nuclei count vs DMSO), 5 days (fraction); higher = more cells survive
COR-L23 = test system: COR-L23
Method in brief: (§1)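 The day after seeding in 1536-well plates, lung cancer cell lines were treated by pin tool with a single drug, or with a fixed anchor-drug dose together with five library-drug doses (not always all listed) in √10 steps. After 5 days, a combined fix-and-stain solution (final 0.05% Triton X-100, 1% formaldehyde, 1 ug/ml Hoechst) was added. Nuclei counted on 4× images gave relative viability as treated counts over vehicle counts, reported as the median of duplicate plates.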

EPLC-272H = test system: EPLC-272H
Method in brief: as §1

HARA = test system: HARA
Method in brief: as §1

HCC-15 = test system: HCC-15
Method in brief: as §1

HCC-78 = test system: HCC-78
Method in brief: as §1

LC-2-ad = test system: LC-2-ad
Method in brief: as §1

LU99A = test system: LU99A
Method in brief: as §1

NCI-H1651 = test system: NCI-H1651
Method in brief: as §1

NCI-H1915 = test system: NCI-H1915
Method in brief: as §1

NCI-H1993 = test system: NCI-H1993
Method in brief: as §1

NCI-H2009 = test system: NCI-H2009
Method in brief: as §1

NCI-H2085 = test system: NCI-H2085
Method in brief: as §1

NCI-H2126 = test system: NCI-H2126
Method in brief: as §1

NCI-H2342 = test system: NCI-H2342
Method in brief: as §1

NCI-H2347 = test system: NCI-H2347
Method in brief: as §1

NCI-H358 = test system: NCI-H358
Method in brief: as §1

NCI-H460 = test system: NCI-H460
Method in brief: as §1

NCI-H522 = test system: NCI-H522
Method in brief: as §1

NCI-H650 = test system: NCI-H650
Method in brief: as §1

NCI-H838 = test system: NCI-H838
Method in brief: as §1

PC-14 = test system: PC-14
Method in brief: as §1

SW 1573 = test system: SW 1573
Method in brief: as §1

UMC-11 = test system: UMC-11
Method in brief: as §1

Compound: Clc1ccc(Nc2nnc(Cc3ccncc3)c3ccccc23)cc1 [Vatalanib] + CC(=O)Nc1cccc(-n2c(=O)n(C3CC3)c(=O)c3c(Nc4ccc(I)cc4F)n(C)c(=O)c(C)c32)c1 [Trametinib] (partner 0.02 µM)
- relative viability (COR-L23; first compound 0.04 µM): 0.606
- relative viability (COR-L23; first compound 0.1265 µM): 0.587
- relative viability (COR-L23; first compound 0.4 µM): 0.721
- relative viability (COR-L23; first compound 1.265 µM): 0.578
- relative viability (COR-L23; first compound 4 µM): 0.534
- relative viability (EPLC-272H; first compound 0.04 µM): 0.284
- relative viability (EPLC-272H; first compound 0.1265 µM): 0.247
- relative viability (EPLC-272H; first compound 0.4 µM): 0.327
- relative viability (EPLC-272H; first compound 1.265 µM): 0.264
- relative viability (EPLC-272H; first compound 4 µM): 0.268
- relative viability (HARA; first compound 0.04 µM): 0.687
- relative viability (HARA; first compound 0.1265 µM): 0.728
- relative viability (HARA; first compound 0.4 µM): 0.606
- relative viability (HARA; first compound 1.265 µM): 0.677
- relative viability (HARA; first compound 4 µM): 0.909
- relative viability (HCC-15; first compound 0.04 µM): 0.392
- relative viability (HCC-15; first compound 0.1265 µM): 0.412
- relative viability (HCC-15; first compound 0.4 µM): 0.404
- relative viability (HCC-15; first compound 1.265 µM): 0.365
- relative viability (HCC-15; first compound 4 µM): 0.365
- relative viability (HCC-78; first compound 0.04 µM): 0.729
- relative viability (HCC-78; first compound 0.1265 µM): 0.794
- relative viability (HCC-78; first compound 0.4 µM): 0.809
- relative viability (HCC-78; first compound 1.265 µM): 0.822
- relative viability (HCC-78; first compound 4 µM): 0.694
- relative viability (LC-2-ad; first compound 0.04 µM): 0.97
- relative viability (LC-2-ad; first compound 0.1265 µM): 0.77
- relative viability (LC-2-ad; first compound 0.4 µM): 0.965
- relative viability (LC-2-ad; first compound 1.265 µM): 0.919
- relative viability (LC-2-ad; first compound 4 µM): 0.892
- relative viability (LU99A; first compound 0.04 µM): 0.563
- relative viability (LU99A; first compound 0.1265 µM): 0.527
- relative viability (LU99A; first compound 0.4 µM): 0.647
- relative viability (LU99A; first compound 1.265 µM): 0.492
- relative viability (LU99A; first compound 4 µM): 0.521
- relative viability (NCI-H1651; first compound 0.04 µM): 0.802
- relative viability (NCI-H1651; first compound 0.1265 µM): 0.778
- relative viability (NCI-H1651; first compound 0.4 µM): 0.779
- relative viability (NCI-H1651; first compound 1.265 µM): 0.742
- relative viability (NCI-H1651; first compound 4 µM): 0.809
- relative viability (NCI-H1915; first compound 0.04 µM): 0.32
- relative viability (NCI-H1915; first compound 0.1265 µM): 0.34
- relative viability (NCI-H1915; first compound 0.4 µM): 0.323
- relative viability (NCI-H1915; first compound 1.265 µM): 0.298
- relative viability (NCI-H1915; first compound 4 µM): 0.295
- relative viability (NCI-H1993; first compound 0.04 µM): 0.539
- relative viability (NCI-H1993; first compound 0.1265 µM): 0.452
- relative viability (NCI-H1993; first compound 0.4 µM): 0.54
- relative viability (NCI-H1993; first compound 1.265 µM): 0.459
- relative viability (NCI-H1993; first compound 4 µM): 0.49
- relative viability (NCI-H2009; first compound 0.04 µM): 0.32
- relative viability (NCI-H2009; first compound 0.1265 µM): 0.251
- relative viability (NCI-H2009; first compound 0.4 µM): 0.325
- relative viability (NCI-H2009; first compound 1.265 µM): 0.307
- relative viability (NCI-H2009; first compound 4 µM): 0.263
- relative viability (NCI-H2085; first compound 0.04 µM): 0.516
- relative viability (NCI-H2085; first compound 0.1265 µM): 0.384
- relative viability (NCI-H2085; first compound 0.4 µM): 0.645
- relative viability (NCI-H2085; first compound 1.265 µM): 0.484
- relative viability (NCI-H2085; first compound 4 µM): 0.735
- relative viability (NCI-H2126; first compound 0.04 µM): 0.539
- relative viability (NCI-H2126; first compound 0.1265 µM): 0.612
- relative viability (NCI-H2126; first compound 0.4 µM): 0.591
- relative viability (NCI-H2126; first compound 1.265 µM): 0.528
- relative viability (NCI-H2126; first compound 4 µM): 0.536
- relative viability (NCI-H2342; first compound 0.04 µM): 0.766
- relative viability (NCI-H2342; first compound 0.1265 µM): 0.794
- relative viability (NCI-H2342; first compound 0.4 µM): 0.737
- relative viability (NCI-H2342; first compound 1.265 µM): 0.747
- relative viability (NCI-H2342; first compound 4 µM): 0.804
- relative viability (NCI-H2347; first compound 0.04 µM): 0.278
- relative viability (NCI-H2347; first compound 0.1265 µM): 0.277
- relative viability (NCI-H2347; first compound 0.4 µM): 0.279
- relative viability (NCI-H2347; first compound 1.265 µM): 0.266
- relative viability (NCI-H2347; first compound 4 µM): 0.309
- relative viability (NCI-H358; first compound 0.04 µM): 0.156
- relative viability (NCI-H358; first compound 0.1265 µM): 0.122
- relative viability (NCI-H358; first compound 0.4 µM): 0.151
- relative viability (NCI-H358; first compound 1.265 µM): 0.13
- relative viability (NCI-H358; first compound 4 µM): 0.138
- relative viability (NCI-H460; first compound 0.04 µM): 0.178
- relative viability (NCI-H460; first compound 0.1265 µM): 0.11
- relative viability (NCI-H460; first compound 0.4 µM): 0.201
- relative viability (NCI-H460; first compound 1.265 µM): 0.135
- relative viability (NCI-H460; first compound 4 µM): 0.0924
- relative viability (NCI-H522; first compound 0.04 µM): 0.73
- relative viability (NCI-H522; first compound 0.1265 µM): 0.714
- relative viability (NCI-H522; first compound 0.4 µM): 0.714
- relative viability (NCI-H522; first compound 1.265 µM): 0.754
- relative viability (NCI-H522; first compound 4 µM): 0.882
- relative viability (NCI-H650; first compound 0.04 µM): 0.941
- relative viability (NCI-H650; first compound 0.1265 µM): 0.796
- relative viability (NCI-H650; first compound 0.4 µM): 0.997
- relative viability (NCI-H650; first compound 1.265 µM): 0.924
- relative viability (NCI-H650; first compound 4 µM): 0.904
- relative viability (NCI-H838; first compound 0.04 µM): 0.575
- relative viability (NCI-H838; first compound 0.1265 µM): 0.539
- relative viability (NCI-H838; first compound 0.4 µM): 0.657
- relative viability (NCI-H838; first compound 1.265 µM): 0.462
- relative viability (NCI-H838; first compound 4 µM): 0.509
- relative viability (PC-14; first compound 0.04 µM): 0.671
- relative viability (PC-14; first compound 0.1265 µM): 0.826
- relative viability (PC-14; first compound 0.4 µM): 0.991
- relative viability (PC-14; first compound 1.265 µM): 0.738
- relative viability (PC-14; first compound 4 µM): 0.6
- relative viability (SW 1573; first compound 0.1265 µM): 0.569
- relative viability (SW 1573; first compound 0.4 µM): 0.607
- relative viability (SW 1573; first compound 1.265 µM): 0.58
- relative viability (SW 1573; first compound 4 µM): 0.564
- relative viability (UMC-11; first compound 0.04 µM): 0.761
- relative viability (UMC-11; first compound 0.1265 µM): 0.769
- relative viability (UMC-11; first compound 0.4 µM): 0.418
- relative viability (UMC-11; first compound 1.265 µM): 0.688
- relative viability (UMC-11; first compound 4 µM): 0.847
